US11672786B2, “Methods of treating diseases associated with repeat instability” (The Hospital for Sick Children, priority 2016, dated 2023)
Where “and” joins values, the source holds several entries; their conditions need not be identical. Equal entries are not always repeated.

Key:
HT1080-(CAG)850 cells = assay: cell toxicity, WST-1 assay; conditions: treated with NA for 72 hr
Protocol: Scale bar represents 20 μm.
The construction of the HT1080-(CAG)850 cell model was described previously (Sathasivam et al., 1997, Hum. Genet., 99:692-5). Briefly, HT1080 (ATCC) human fibrosarcoma cells were co-transfected with a plasmid (LC15-R) containing 800-850 (CTG)●(CAG) repeats (Nakatani et al., 2005, Nat. Chem. Biol., 1:39-43) and a plasmid encoding PhiC31 integrase. Transfection was performed with a Nucleofector (Lonza, Basel, Switzerland), and stably transfected clones were selected with puromycin. The HT1080-non transcribing (CAG)850 cell model was established by transfecting a plasmid modified from pLC16 by adding a SV40 polyadenylation signal downstream of the repeats, instead of LC15-R. The HT1080-non-transcribing (CAG)850 cell model was established by transfecting a plasmid modified from pLC16 by inserting an additional SV40 polyadenylation signal downstream of the repeats (in addition to the original polyadenylation signals located upstream of the repeats), so that CAG/CTG repeats are floxed by transcription-terminator elements. The AttB-PhiC31 system has been widely used for single copy integration. […]

HD fibroblasts (CAG)43 = assay: small-pool PCR across HD repeat tract, HD primary fibroblasts GM02191; assay type: cell-based, human; conditions: 40 days; for % Contraction / % Expansion / % Unchanged / Average repeat size: 50 uM NA
Protocol: (§1) The construction of the HT1080-(CAG)850 cell model was described previously (Sathasivam et al., 1997, Hum. Genet., 99:692-5). Briefly, HT1080 (ATCC) human fibrosarcoma cells were co-transfected with a plasmid (LC15-R) containing 800-850 (CTG)●(CAG) repeats (Nakatani et al., 2005, Nat. Chem. Biol., 1:39-43) and a plasmid encoding PhiC31 integrase. Transfection was performed with a Nucleofector (Lonza, Basel, Switzerland), and stably transfected clones were selected with puromycin. The HT1080-non-transcribing (CAG)850 cell model was established by transfecting a plasmid modified from pLC16 by inserting an additional SV40 polyadenylation signal downstream of the repeats (in addition to the original polyadenylation signals located upstream of the repeats), so that CAG/CTG repeats are floxed by transcription-terminator elements. The AttB-PhiC31 system has been widely used for single copy integration. […] The HT1080 model cells and an HD primary fibroblast cell line, GM09197 (Coriell Biorepository) with a large expanded allele of 180 CAG repeats and a non-expanded allele of 23 repeats (Sathasivam et al., 1997, Hum. Genet., 99:[…]), the HD primary fibroblast cell line, GM02191 (Coreill Biorepository) with an expanded allele of 43 CAG repeats and a non-expanded allele of 19 repeats, were cultured at 37° C. with 5% CO2 in Dulbecco's modified Eagle's medium supplemented with 10% fetal bovine serum and 1% penicillin/streptomycin. Cells were treated with or without continuous exposure to 50-μM NA for 30 days (HT1080 cells) or for 40 days (fibroblast cells). For experiments on non-proliferating cells, HT1080 cells were grown to confluence and then treated for the same period. WST-1 assay was performed according to the manufacturer's instructions (Roche, Basel, Switzerland). All cell lines were tested to be free of Mycoplasma. Three biological replicates were performed for each experiment.
(§2) Genomic DNA was extracted from HT1080-(CAG)850 clones and HD primary fibroblasts using the Gentra Puregene Cell Kit (Qiagen, Valencia, Calif.). The expanded (CTG)●(CAG) repeats were sized by small-pool PCR (sp-PCR) followed by Southern blot as described previously (Sathasivam et al., 1997, Hum. Genet., 99:692-5). For HT1080 models, small-pool PCR (spPCR) was performed with the input of 1.4-1.7 genome equivalents. The repeat size difference in the models is, at most, 3000 base-pairs, therefore, being strictly conservative, a bias toward amplifying the shorter allele can be possible, even under optimized PCR conditions described herein. For HD primary fibroblasts, sp-PCR & Southern blots were performed as described previously with slight modifications (Tome et al., 2013, PLoS Genet., 9:e1003280). Briefly, the PCR primers listed in Table 1 were used, and blots were hybridized with a DIG-labeled (CAG)7 locked nucleic acid probe (Nakamori et al. 2009, Neuromuscul. Disord., 19:759-62). At least 50 alleles were analyzed for each of the three experiments (more than 150 alleles for a total study). Repeat analyses are summarized in Table 2, compiled from complete small-pool-PCR datasets for each repetition of each experiment. For the histograms in FIGS. 4D, 4E, 10, 11, 5B, 5D, 5E, 14 and 15B, the Y-axis, “% of repeat population” was calculated by determining the proportion of >50 individual small-pool PCR reactions across the CAG repeat tract, that harbored a certain size of repeat product with a certain length. Cell clones were grown 30 or 40 days with or without NA (see, for example, Sathasivam et al., 1997, Hum. Genet., 99:692-5). Specifically, the histograms of repeat length distributions were from at least two different cell clones. Length distributions were determined as follows: Small-pool PCR followed by Southern blot for analysis of CAG/CTG repeat length.

HD fibroblasts (CAG)180 = assay: small-pool PCR across HD repeat tract, HD primary fibroblasts GM09197; assay type: cell-based, human; conditions: 50 uM NA, 40 days
Protocol: as §1, §2

[1] = single experiments Ex 1-3, cut-off ±10 repeats

naphthyridine-azaquinolone
acute cytotoxicity (cell viability, WST-1) (HT1080-(CAG)850 cells): without causing acute cytotoxicity | lowest repeat length reached by contractions (HD fibroblasts (CAG)43; 50 μM NA, HD disease threshold 35 units): ≥ 20 repeats | % Contraction (HD fibroblasts (CAG)43; Total): 25.3% | % Expansion (HD fibroblasts (CAG)43; Total): 4.9% | % Unchanged (HD fibroblasts (CAG)43; Total): 69.8% | Average repeat size (HD fibroblasts (CAG)43; Total): 40.7 number of repeats | % Unchanged (HD fibroblasts (CAG)43; single experiments Ex 1-3): 67.0% and 69.2% and 73.2% | Average repeat size (HD fibroblasts (CAG)43; single experiments Ex 1-3): 40.6 number of repeats and 40.4 number of repeats and 41.0 number of repeats | % Contraction (HD fibroblasts (CAG)43; [1]): 28.4% and 25.2% and 22.3% | % Expansion (HD fibroblasts (CAG)43; [1]): 4.6% and 5.6% and 4.5% | % Contraction (HD fibroblasts (CAG)180; Total): 31.2% | % Expansion (HD fibroblasts (CAG)180; Total): 13.6% | % Unchanged (HD fibroblasts (CAG)180; Total): 55.2% | Average repeat size (HD fibroblasts (CAG)180; Total): 177.5 number of repeats | % Unchanged (HD fibroblasts (CAG)180; single experiments Ex 1-3): 58.6% and 56.1% and 50.9% | Average repeat size (HD fibroblasts (CAG)180; single experiments Ex 1-3): 178.5 number of repeats and 176.5 number of repeats and 177.5 number of repeats | % Contraction (HD fibroblasts (CAG)180; [1]): 28.8% and 30.8% and 34.0% | % Expansion (HD fibroblasts (CAG)180; [1]): 12.6% and 13.1% and 15.1%
